Reference: PMC8286840, “Identifying SARS-CoV-2 antiviral compounds by screening for small molecule inhibitors of Nsp3 papain-like protease” (Biochemical Journal, 2021)
Counter-ions that a name gives are not always drawn. Like-named read-outs stand apart in the source and are kept apart here. Where a SMILES comes first, the peptide text is derived from it. [ ]: non-standard residue; d: D form. The star is where a group is joined. Dolaproine = CO[C@@H]([C@@H]1CCCN1)[C@@H](C)C(=O)O; Dil = CC[C@H](C)[C@H](NC)[C@@H](CC(=O)O)OC; NMe2Val = CC(C)[C@@H](C(=O)*)N(C)C

Legend:
[1] = biological target: T1, SARS-CoV-2 PLpro (nsp3 1564–1878) (Severe acute respiratory syndrome coronavirus 2, UniProt P0DTD1); experiment: biochemical; parameters: FRET-quenched peptide (Pro3) cleavage by PLpro, 10 min pre-incubation, slope over 20 min, normalised to no-compound control; conditions: read-out: % of control remaining
[2] = biological target: T1, SARS-CoV-2 PLpro (nsp3 1564–1878); experiment: biochemical; parameters: FRET-quenched peptide (Pro3) cleavage by PLpro, 10 min pre-incubation, slope over 20 min, normalised to no-compound control; conditions: read-out: % of control remaining; remark: listed apart in the source

SMILES: CC(C)(C)NCC(O)c1cc(O)cc(O)c1 (stereo not shown) [Terbutaline hemisulfate]
- remaining activity at 1.25 µM ([1]; Well no.=1189, low concentration screen): 98.5%
- remaining activity at 3.75 µM ([2]; Well no.=1189, high concentration screen): 100%

SMILES: CC1=C(O)C(=O)[C@@H]2O[C@@H]2C1=O [(-)-Terreic acid - (1R,6S)-3-Hydroxy-4-methyl-7-oxabicyclo[4.1.0]hept-3-ene-2,5-dione]
- remaining activity at 1.25 µM ([1]; Well no.=2398, low concentration screen): 99.2%
- remaining activity at 3.75 µM ([2]; Well no.=2398, high concentration screen): 104%

SMILES: COc1ccc2c(c1)c(CC(=O)N1CCOCC1)c(C)n2C(=O)c1ccc(Cl)cc1 [Indomethacin morpholinylamide]
- remaining activity at 1.25 µM ([1]; Well no.=971, low concentration screen): 94.6%
- remaining activity at 3.75 µM ([2]; Well no.=971, high concentration screen): 89.7%

SMILES: CC[C@H](C)[C@@H]([C@@H](CC(=O)N1CCC[C@H]1[C@H](OC)[C@@H](C)C(=O)N[C@@H](Cc1ccccc1)C(=O)O)OC)N(C)C(=O)[C@@H](NC(=O)[C@H](C(C)C)N(C)C)C(C)C [Auristatin F] (NMe2Val-V[Dil][Dolaproine]F-OH)
- remaining activity at 1.25 µM ([1]; Well no.=8602, low concentration screen): 106%
- remaining activity at 3.75 µM ([2]; Well no.=8602, high concentration screen): 100%

SMILES: O=S(=O)(c1ccc2c(c1)C(=NO)c1cc(S(=O)(=O)N3CCCCC3)ccc1-2)N1CCCCC1 [CIL56]
- remaining activity at 1.25 µM ([1]; Well no.=6774, low concentration screen): 98.2%
- remaining activity at 3.75 µM ([2]; Well no.=6774, high concentration screen): 95.6%

SMILES: O=C1NCCSc2c1sc1ccc(O)cc21 [kb NB 142-70]
- remaining activity at 1.25 µM ([1]; Well no.=6738, low concentration screen): 92%
- remaining activity at 3.75 µM ([2]; Well no.=6738, high concentration screen): 92.4%

SMILES: NC(=O)[C@H](Cc1ccccc1)NC(=O)[C@H](Cc1c[nH]c2ccccc12)NC(=O)[C@@H]1CCCN1C(=O)[C@@H](N)Cc1ccc(O)cc1 [Endomorphin 1]
- remaining activity at 1.25 µM ([1]; Well no.=7901, low concentration screen): 102%
- remaining activity at 3.75 µM ([2]; Well no.=7901, high concentration screen): 97.8%

SMILES: N=c1ccn2c(n1)O[C@H]1[C@H](O)[C@@H](CO)O[C@H]12 [Ancitabine hydrochloride]
- remaining activity at 1.25 µM ([1]; Well no.=294, low concentration screen): 98.8%
- remaining activity at 3.75 µM ([2]; Well no.=294, high concentration screen): 93.7%

SMILES: CCN1C[C@H](C)n2c(c(O)c3c(=O)n(Cc4ccc(F)c(Cl)c4)nc(C(=O)NC)c32)C1=O [MK-2048]
- remaining activity at 1.25 µM ([1]; Well no.=4731, low concentration screen): 107%
- remaining activity at 3.75 µM ([2]; Well no.=4731, high concentration screen): 104%

SMILES: COc1cc(OC)c(C=C2C(=O)Nc3ccccc32)c(OC)c1 [IC261]
- remaining activity at 1.25 µM ([1]; Well no.=2506, low concentration screen): 103%
- remaining activity at 3.75 µM ([2]; Well no.=2506, high concentration screen): 103%

SMILES: O=C1c2c(O)cc(O)cc2O[C@H](c2ccc(O)c(O)c2)[C@H]1O (racemic)
- remaining activity at 1.25 µM ([1]; Well no.=1527, low concentration screen): 95.9%
- remaining activity at 3.75 µM ([2]; Well no.=1527, high concentration screen): 96.7%

SMILES: O=c1ccc2cc3ccoc3cc2o1 [7H-furo[3,2-g]chromen-7-one]
- remaining activity at 1.25 µM ([1]; Well no.=5431, low concentration screen): 101%
- remaining activity at 3.75 µM ([2]; Well no.=5431, high concentration screen): 104%

SMILES: CCCCCCC(C)(C)c1ccc([C@@H]2C[C@H](O)CC[C@H]2CCCO)c(O)c1 [CP55940]
- remaining activity at 1.25 µM [1]: 104%
- remaining activity at 3.75 µM [2]: 106%

SMILES: Cc1ccc(C)c(OCCCC(C)(C)C(=O)O)c1 [Gemfibrozil]
- remaining activity at 1.25 µM ([1]; Well no.=2174, low concentration screen): 95.4%
- remaining activity at 3.75 µM ([2]; Well no.=2174, high concentration screen): 98.7%

SMILES: C#CCNCc1cc2cc(OCc3ccccc3)ccc2[nH]1 [N-((5-(benzyloxy)-1H-indol-2-yl)methyl)prop-2-yn-1-amine]
- remaining activity at 1.25 µM ([1]; Well no.=5630, low concentration screen): 95.4%
- remaining activity at 3.75 µM ([2]; Well no.=5630, high concentration screen): 96.5%

SMILES: CCCCC/C=C\C\C=C/C=C/C=C/[C@@H](SC[C@H](NC(=O)CC[C@H](N)C(=O)O)C(=O)NCC(=O)O)[C@@H](O)CCCC(=O)O [Leukotriene C4]
- remaining activity at 1.25 µM ([1]; Well no.=4429, low concentration screen): 102%
- remaining activity at 3.75 µM ([2]; Well no.=4429, high concentration screen): 101%

SMILES: O=[N+]([O-])c1ccc(O[C@@H]2O[C@H](CO)[C@@H](O)[C@H](O)[C@H]2F)c([N+](=O)[O-])c1 [2,4-Dinitrophenyl 2-fluoro-2-deoxy-beta-D-glucopyranoside]
- remaining activity at 1.25 µM ([1]; Well no.=637, low concentration screen): 100%
- remaining activity at 3.75 µM ([2]; Well no.=637, high concentration screen): 101%

SMILES: COC(=O)Nc1ccc(-c2nc(N3CCOCC3)c3cnn(C4CCN(Cc5cccnc5)CC4)c3n2)cc1 [WYE-687]
- remaining activity at 1.25 µM ([1]; Well no.=4645, low concentration screen): 104%
- remaining activity at 3.75 µM ([2]; Well no.=4645, high concentration screen): 103%

SMILES: CCCNC(=O)[C@H]1O[C@@H]1C(=O)N[C@H](C(=O)N1CCC[C@H]1C(=O)OC)[C@@H](C)CC [CA-074 methyl ester]
- remaining activity at 1.25 µM ([1]; Well no.=8166, low concentration screen): 105%
- remaining activity at 3.75 µM ([2]; Well no.=8166, high concentration screen): 100%

SMILES: O=C(NC(NC(=S)Nc1ccc(F)c([N+](=O)[O-])c1)C(Cl)(Cl)Cl)C(c1ccccc1)c1ccccc1 (stereo not shown) [ATM/ATR Kinase Inhibitor]
- remaining activity at 1.25 µM ([1]; Well no.=2312, low concentration screen): 98.2%
- remaining activity at 3.75 µM ([2]; Well no.=2312, high concentration screen): 98.3%

SMILES: O=c1cc(-c2cccc3c2Sc2ccccc2S3)oc(N2CCOCC2)c1 [KU 55933 - 2-(4-Morpholinyl)-6-(1-thianthrenyl)-4H-pyran-4-one]
- remaining activity at 1.25 µM ([1]; Well no.=2438, low concentration screen): 101%
- remaining activity at 3.75 µM ([2]; Well no.=2438, high concentration screen): 103%

SMILES: CNC(=O)[C@H](Cc1c[nH]c2ccccc12)NC(=O)[C@@H](CC(=O)NO)CC(C)C [Ilomastat (GM6001, Galardin)]
- remaining activity at 1.25 µM ([1]; Well no.=9030, low concentration screen): 101%
- remaining activity at 3.75 µM ([2]; Well no.=9030, high concentration screen): 94.4%

SMILES: CCCn1c(=O)c2[nH]c(-c3ccc(OCC(=O)Nc4ccc(C(C)=O)cc4)cc3)nc2n(CCC)c1=O [MRS-1706]
- remaining activity at 1.25 µM ([1]; Well no.=8511, low concentration screen): 102%
- remaining activity at 3.75 µM ([2]; Well no.=8511, high concentration screen): 105%

SMILES: Cc1ncc([N+](=O)[O-])n1CCO [Metronidazole]
- remaining activity at 1.25 µM ([1]; Well no.=1963, low concentration screen): 99.6%
- remaining activity at 3.75 µM ([2]; Well no.=1963, high concentration screen): 99.9%

SMILES: Nc1ccc(CNc2ncnc3c2ncn3[C@@H]2O[C@H](CO)[C@@H](O)[C@H]2O)cc1 [N-[(4-Aminophenyl)methyl]adenosine]
- remaining activity at 1.25 µM ([1]; Well no.=8319, low concentration screen): 104%
- remaining activity at 1.25 µM ([1]; Well no.=8895, low concentration screen): 102%
- remaining activity at 3.75 µM ([2]; Well no.=8319, high concentration screen): 100%
- remaining activity at 3.75 µM ([2]; Well no.=8895, high concentration screen): 99.6%

SMILES: CCN1CCN(C(=O)N[C@@H](C(=O)N[C@@H]2C(=O)N3[C@@H]2SC(C)(C)[C@@H]3C(=O)O)c2ccccc2)C(=O)C1=O [Piperacillin]
- remaining activity at 1.25 µM ([1]; Well no.=2107, low concentration screen): 104%
- remaining activity at 3.75 µM ([2]; Well no.=2107, high concentration screen): 104%

SMILES: c1ccc2c(CC3=NCCN3)cccc2c1 [Naphazoline (hydrochloride)]
- remaining activity at 1.25 µM ([1]; Well no.=7529, low concentration screen): 96.6%
- remaining activity at 3.75 µM ([2]; Well no.=7529, high concentration screen): 97.5%

SMILES: CC(C)(C)NCC(O)c1ccccc1Cl (stereo not shown) [Tulobuterol]
- remaining activity at 1.25 µM ([1]; Well no.=2027, low concentration screen): 98.5%
- remaining activity at 3.75 µM ([2]; Well no.=2027, high concentration screen): 100%

SMILES: OC[C@@H](O)[C@@H](O)[C@H](O)[C@H](O)CO [D-Mannitol]
- remaining activity at 1.25 µM ([1]; Well no.=6397, low concentration screen): 104%
- remaining activity at 1.25 µM ([1]; Well no.=8434, low concentration screen): 96.7%
- remaining activity at 3.75 µM ([2]; Well no.=6397, high concentration screen): 96.4%
- remaining activity at 3.75 µM ([2]; Well no.=8434, high concentration screen): 96.1%

SMILES: CCCCCCCCCCCCCC[C@@H](O)[C@@H](O)[C@@H](N)CO [Phytosphingosine]
- remaining activity at 1.25 µM ([1]; Well no.=3082, low concentration screen): 102%
- remaining activity at 3.75 µM ([2]; Well no.=3082, high concentration screen): 103%

SMILES: C=CC1=C(C)c2cc3[nH]c(cc4nc(cc5[nH]c(cc1n2)c(C)c5CCC(=O)O)C(CCC(=O)O)=C4C)c(C)c3C=C [Protoporphyrin IX disodium]
- remaining activity at 1.25 µM ([1]; Well no.=1207, low concentration screen): 104%
- remaining activity at 3.75 µM ([2]; Well no.=1207, high concentration screen): 102%

SMILES: C#CCN[C@@H]1CCc2ccccc21 [TVP1022]
- remaining activity at 1.25 µM ([1]; Well no.=5527, low concentration screen): 101%
- remaining activity at 3.75 µM ([2]; Well no.=5527, high concentration screen): 112%

SMILES: COc1cc2nc(N3CCN(C(=O)C4CCCO4)CC3)nc(N)c2cc1OC (stereo not shown) [Terazosin]
- remaining activity at 1.25 µM ([1]; Well no.=2301, low concentration screen): 90.8%
- remaining activity at 3.75 µM ([2]; Well no.=2301, high concentration screen): 89.8%
